The source made the active and inactive calls.
How the values were obtained:
[1] = Luminescence-based cell-based high throughput dose response assay to identify activators of the DAF-12 from the parasite S. stercoralis (ssDAF-12).; type: functional
[2] = molecular target: T1, Oxysterols receptor LXR-beta (Homo sapiens, UniProt P55055); test: LXR agonists, Gal4 luciferase reporter, dose response, counter-screen for ssDAF-12 agonist project, cell-based, luminescence, HEK293, S. stercoralis campaign (AID 720737); type: functional; details: read-out: IC50 (the source's name)
T1 sequence (P55055 whole entry): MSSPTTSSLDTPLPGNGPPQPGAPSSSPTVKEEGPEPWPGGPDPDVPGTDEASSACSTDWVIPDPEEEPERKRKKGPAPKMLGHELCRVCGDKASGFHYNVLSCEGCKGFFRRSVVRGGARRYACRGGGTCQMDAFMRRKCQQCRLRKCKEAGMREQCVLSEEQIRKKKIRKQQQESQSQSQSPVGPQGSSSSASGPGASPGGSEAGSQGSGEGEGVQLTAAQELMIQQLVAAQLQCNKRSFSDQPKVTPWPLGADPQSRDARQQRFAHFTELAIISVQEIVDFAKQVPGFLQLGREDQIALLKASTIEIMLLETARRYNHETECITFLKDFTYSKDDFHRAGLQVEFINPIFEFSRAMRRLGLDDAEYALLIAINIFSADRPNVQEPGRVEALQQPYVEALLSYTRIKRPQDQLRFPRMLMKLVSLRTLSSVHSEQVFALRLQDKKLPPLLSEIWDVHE

[3] = molecular target: T1, Oxysterols receptor LXR-beta; type: functional, cell-based
cells [4] = test: cells
[5] = molecular target: Glucose-6-phosphate 1-dehydrogenase (Homo sapiens, UniProt P11413); test: human G6PD enzyme inhibitors, dose response, selectivity assay for P. falciparum G6PD inhibitor project, biochemical, fluorescence (AID 504792); type: functional
Chain of Glucose-6-phosphate 1-dehydrogenase (P11413 whole entry): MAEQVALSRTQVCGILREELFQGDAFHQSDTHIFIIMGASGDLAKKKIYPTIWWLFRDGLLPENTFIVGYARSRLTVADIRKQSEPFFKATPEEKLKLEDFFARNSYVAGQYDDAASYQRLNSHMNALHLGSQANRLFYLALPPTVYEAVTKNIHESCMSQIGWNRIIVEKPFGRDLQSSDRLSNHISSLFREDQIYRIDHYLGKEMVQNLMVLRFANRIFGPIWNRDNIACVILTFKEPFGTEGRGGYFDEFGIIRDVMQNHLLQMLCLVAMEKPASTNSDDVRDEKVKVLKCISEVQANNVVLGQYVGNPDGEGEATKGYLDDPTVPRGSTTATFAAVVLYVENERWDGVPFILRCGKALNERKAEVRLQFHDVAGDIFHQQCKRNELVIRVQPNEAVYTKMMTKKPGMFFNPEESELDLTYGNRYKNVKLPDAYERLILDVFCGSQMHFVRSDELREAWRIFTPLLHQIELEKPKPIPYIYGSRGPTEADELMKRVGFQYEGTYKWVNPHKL

Vero = Vero cell cytotoxicity, cytotoxicity control for flavivirus capping enzyme inhibitors (AID 588742); type: functional; details: Chlorocebus sabaeus
Genome polyprotein = Genome polyprotein (dengue virus type 2, UniProt P29990); test: Dengue-2 NS5 methyltransferase inhibitors, primary screen, biochemical, confirmation dose response (AID 588689); type: functional
Chain of Genome polyprotein (P29990 2492-3391 limits assumed): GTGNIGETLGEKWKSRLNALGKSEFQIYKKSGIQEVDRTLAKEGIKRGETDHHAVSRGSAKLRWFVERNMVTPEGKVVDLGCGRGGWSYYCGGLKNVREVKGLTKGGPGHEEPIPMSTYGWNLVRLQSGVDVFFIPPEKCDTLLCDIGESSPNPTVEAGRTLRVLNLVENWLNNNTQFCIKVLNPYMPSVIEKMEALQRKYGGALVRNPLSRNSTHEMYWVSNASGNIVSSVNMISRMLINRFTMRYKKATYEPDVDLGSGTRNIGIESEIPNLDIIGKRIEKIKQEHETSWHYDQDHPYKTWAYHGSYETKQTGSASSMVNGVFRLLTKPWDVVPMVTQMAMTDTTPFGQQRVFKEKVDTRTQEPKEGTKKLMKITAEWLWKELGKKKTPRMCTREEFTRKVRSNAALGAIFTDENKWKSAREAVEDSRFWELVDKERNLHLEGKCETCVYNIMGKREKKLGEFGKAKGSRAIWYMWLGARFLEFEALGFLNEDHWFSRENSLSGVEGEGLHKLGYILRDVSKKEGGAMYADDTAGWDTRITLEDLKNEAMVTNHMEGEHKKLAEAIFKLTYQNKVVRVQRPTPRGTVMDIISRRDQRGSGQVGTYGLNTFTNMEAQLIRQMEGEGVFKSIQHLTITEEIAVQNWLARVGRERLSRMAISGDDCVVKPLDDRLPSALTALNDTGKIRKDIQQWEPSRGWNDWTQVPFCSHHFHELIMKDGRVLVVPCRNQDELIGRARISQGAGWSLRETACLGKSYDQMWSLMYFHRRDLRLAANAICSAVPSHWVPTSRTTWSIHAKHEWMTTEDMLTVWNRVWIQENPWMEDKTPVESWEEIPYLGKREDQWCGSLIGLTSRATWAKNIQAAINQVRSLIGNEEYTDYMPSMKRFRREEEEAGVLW

[6] = molecular target: T2, Probable nicotinate-nucleotide adenylyltransferase (Staphylococcus aureus (strain N315), UniProt P65502); type: functional, Staphylococcus aureus subsp. aureus N315;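 as to IC50 Mean: confirmatory dose-response retesting of NadD inhibitor hits first found in an ultra-high-throughput screen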
T2 sequence (P65502 whole entry): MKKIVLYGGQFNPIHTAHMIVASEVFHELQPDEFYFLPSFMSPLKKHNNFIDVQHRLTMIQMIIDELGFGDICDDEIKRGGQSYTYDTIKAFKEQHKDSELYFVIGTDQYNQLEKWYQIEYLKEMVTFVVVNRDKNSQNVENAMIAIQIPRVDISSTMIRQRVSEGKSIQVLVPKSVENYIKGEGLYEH

[7] = molecular target: T2, Probable nicotinate-nucleotide adenylyltransferase; type: functional, Staphylococcus aureus subsp. aureus N315; details: read-out: IC50_Mean
Protein Tat = Protein Tat (Human immunodeficiency virus type 1 group M subtype B (isolate HXB2)(HIV-1), UniProt P04608); type: functional;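 also: tat binding to TAR RNA read out by fluorescence polarization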
Chain of Protein Tat (P04608 whole entry): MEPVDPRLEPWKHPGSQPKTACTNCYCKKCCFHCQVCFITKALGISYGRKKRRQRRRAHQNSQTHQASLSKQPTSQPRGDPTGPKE

[8] = THP-1 cell cytotoxicity, dose response, cytotoxicity control for Vif-APOBEC3G degradation inhibitor project, THP-1 cells (AID 1117359); type: functional; details: Human immunodeficiency virus 1, THP-1
HeLa = test: HeLa cell cytotoxicity, dose response, cytotoxicity control for MITF activator project, CellTiter-Glo luminescence, cherry-pick samples (AID 540259); type: functional, cell-based; details: Homo sapiens
[9] = molecular target: T3, DNA repair and recombination protein RAD54-like (Homo sapiens, UniProt Q92698); test: inhibitors of human RAD54 branch migration, confirmation, biochemical, fluorescence, cherry-picked samples, dose series (AID 651657); type: functional
T3 sequence (Q92698 whole entry): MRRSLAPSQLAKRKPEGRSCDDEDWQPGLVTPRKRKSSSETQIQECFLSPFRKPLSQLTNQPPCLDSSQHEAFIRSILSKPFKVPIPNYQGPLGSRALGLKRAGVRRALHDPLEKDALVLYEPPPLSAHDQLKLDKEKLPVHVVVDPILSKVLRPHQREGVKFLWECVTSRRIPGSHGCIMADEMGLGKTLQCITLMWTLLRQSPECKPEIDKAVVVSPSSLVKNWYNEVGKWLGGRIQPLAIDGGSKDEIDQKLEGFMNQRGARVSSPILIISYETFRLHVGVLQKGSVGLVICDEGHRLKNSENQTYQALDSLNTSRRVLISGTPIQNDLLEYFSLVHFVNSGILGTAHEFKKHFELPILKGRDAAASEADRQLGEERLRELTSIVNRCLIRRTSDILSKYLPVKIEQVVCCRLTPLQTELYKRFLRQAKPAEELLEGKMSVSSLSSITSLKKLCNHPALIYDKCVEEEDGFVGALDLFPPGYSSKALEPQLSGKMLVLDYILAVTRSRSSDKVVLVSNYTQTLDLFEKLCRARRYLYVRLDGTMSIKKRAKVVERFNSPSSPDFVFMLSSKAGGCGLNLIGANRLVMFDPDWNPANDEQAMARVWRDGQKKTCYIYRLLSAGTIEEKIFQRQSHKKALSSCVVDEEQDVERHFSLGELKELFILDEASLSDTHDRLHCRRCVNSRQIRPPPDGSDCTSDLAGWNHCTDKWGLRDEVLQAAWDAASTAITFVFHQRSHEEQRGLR

[10] = HepG2 cell cytotoxicity, dose response, cytotoxicity control, ATP luminescence, cherry-pick, set 6 (AID 1053125); type: functional, cell-based
[11] = molecular target: E3 ubiquitin-protein ligase UHRF1 (Homo sapiens, UniProt Q96T88); test: Counterscreen for inhibitors of 5-meCpG-binding domain protein 2 (MBD2): TRFRET-based biochemical high throughput dose response assay to identify inhibitors of binding of ubiquitin-like with PHD and ring finger domains 1 (UHRF1) to methylated oligonucleotide.
Chain of E3 ubiquitin-protein ligase UHRF1 (Q96T88 whole entry, the tested form may be a part): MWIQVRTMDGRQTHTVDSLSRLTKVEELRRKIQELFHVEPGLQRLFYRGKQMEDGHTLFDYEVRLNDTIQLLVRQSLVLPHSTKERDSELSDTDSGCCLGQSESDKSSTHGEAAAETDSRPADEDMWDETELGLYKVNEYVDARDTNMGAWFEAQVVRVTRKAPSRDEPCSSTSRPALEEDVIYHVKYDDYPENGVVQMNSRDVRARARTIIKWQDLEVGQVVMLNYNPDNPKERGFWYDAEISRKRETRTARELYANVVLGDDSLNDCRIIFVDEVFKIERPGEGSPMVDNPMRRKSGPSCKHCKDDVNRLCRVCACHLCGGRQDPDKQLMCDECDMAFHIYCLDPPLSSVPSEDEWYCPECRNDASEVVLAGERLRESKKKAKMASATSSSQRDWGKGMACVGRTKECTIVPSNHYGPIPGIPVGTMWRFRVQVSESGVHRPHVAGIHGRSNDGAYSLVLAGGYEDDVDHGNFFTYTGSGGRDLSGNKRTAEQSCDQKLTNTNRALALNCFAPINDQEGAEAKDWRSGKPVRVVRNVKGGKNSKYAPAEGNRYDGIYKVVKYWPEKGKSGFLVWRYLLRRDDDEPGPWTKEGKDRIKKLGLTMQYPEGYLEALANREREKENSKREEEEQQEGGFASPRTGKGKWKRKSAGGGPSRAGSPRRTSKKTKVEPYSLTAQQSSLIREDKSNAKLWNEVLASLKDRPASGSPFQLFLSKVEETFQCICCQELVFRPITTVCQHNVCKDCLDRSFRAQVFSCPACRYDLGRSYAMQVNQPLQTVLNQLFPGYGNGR

cells [12] = details: A549
cells [13] = details: HEK293
[14] = molecular target: RNA-editing ligase 1, mitochondrial (Trypanosoma brucei brucei, UniProt P86926); test: TbREL1 ligase inhibitors, dose response, biochemical, fluorescence, Trypanosoma brucei (AID 1117295); type: functional
Chain of RNA-editing ligase 1, mitochondrial (P86926 whole entry): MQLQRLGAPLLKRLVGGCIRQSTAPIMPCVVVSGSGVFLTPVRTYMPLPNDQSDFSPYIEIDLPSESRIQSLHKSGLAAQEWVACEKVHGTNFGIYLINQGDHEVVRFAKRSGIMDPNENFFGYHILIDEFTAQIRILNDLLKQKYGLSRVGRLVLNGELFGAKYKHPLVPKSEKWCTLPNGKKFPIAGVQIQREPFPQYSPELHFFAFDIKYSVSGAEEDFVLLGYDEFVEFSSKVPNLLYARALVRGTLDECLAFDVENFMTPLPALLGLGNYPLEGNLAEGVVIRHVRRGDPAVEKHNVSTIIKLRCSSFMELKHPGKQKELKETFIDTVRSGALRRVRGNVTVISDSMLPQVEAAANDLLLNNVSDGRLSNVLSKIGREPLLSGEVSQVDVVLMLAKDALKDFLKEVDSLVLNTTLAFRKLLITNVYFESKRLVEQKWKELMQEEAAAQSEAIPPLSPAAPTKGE

[15] = A549 cell cytotoxicity, dose response, cytotoxicity control, 24 h, CellTiter-Glo luminescence, cherry-picks (AID 1053115); type: functional, cell-based; details: A549, 24 h
[16] = A549 cell cytotoxicity, dose response, CellTiter-Glo luminescence, dry powder, set 17 (AID 1117284); type: functional, cell-based
[17] = Orthopox viral replication plaque formation Measured in Cell-Based and Microorganism Combination System Using Imaging - 2142-05_Inhibitor_Dose_DryPowder_Activity.; type: functional
[18] = Dose-response inhibition of insulin secretion in a rat insulinoma line at 5 mM glucose (AID 1117331); type: functional, cell-based; details: INS-1E
[19] = Mtb BioA inhibitors by displacement, dose response, biochemical, coupled fluorescence displacement, 20-point, dry powder (AID 743357); type: functional
[20] = molecular target: G-protein coupled receptor 183 (Homo sapiens, UniProt P32249); test: SAR confirmation of small molecule antagonists of the EBI2 receptor via a luminescent beta-arrestin assa.; type: functional
Chain of G-protein coupled receptor 183 (P32249 whole entry): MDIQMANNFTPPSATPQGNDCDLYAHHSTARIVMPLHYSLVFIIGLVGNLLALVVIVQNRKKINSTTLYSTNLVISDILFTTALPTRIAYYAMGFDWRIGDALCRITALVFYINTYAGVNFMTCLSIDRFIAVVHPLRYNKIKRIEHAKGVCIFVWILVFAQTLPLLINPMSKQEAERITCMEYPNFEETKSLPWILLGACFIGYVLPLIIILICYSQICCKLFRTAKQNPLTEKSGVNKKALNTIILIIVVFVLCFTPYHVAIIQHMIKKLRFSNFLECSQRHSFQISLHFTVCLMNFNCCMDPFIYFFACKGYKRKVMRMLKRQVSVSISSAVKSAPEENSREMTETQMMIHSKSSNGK

[21] = inhibitors of firefly luciferase expression or activity, dose response, H4 neuroglioma cells, luminescence (AID 1990); type: functional, cell-based
BJ [22] = test: cytotoxicity toward BJ-TERT fibroblasts, dose response, cell-based, RAS-independent, luminescence (AID 1933); type: functional; details: Homo sapiens
[23] = inhibitors of SNCA 5'UTR-driven reporter translation, confirmation, H4 neuroglioma cells, luminescence (AID 1988); type: functional, cell-based
BJ [24] = test: cells; type: functional, cell-based; details: Homo sapiens
[25] = microbe, parasite or virus in culture; type: functional; details: Mycobacterium tuberculosis
BJ [26] = test: cytotoxicity toward BJ-TERT-LT-ST fibroblasts, dose response, cell-based, RAS-independent, luminescence (AID 1935); type: functional; details: Homo sapiens;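 also: BJ fibroblasts immortalized with TERT plus LT and ST oncogenes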
[27] = cytotoxicity toward DRD oncogenic fibroblasts, dose response, cell-based, non-viral oncogenic, luminescence (AID 1934); type: functional; details: Homo sapiens
BJ [28] = test: cytotoxicity toward Ras-transformed BJeLR fibroblasts, dose response, cell-based, alamar blue fluorescence, cherrypicked samples (AID 2631); type: functional; details: Homo sapiens;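 also: confirmatory dose-response assay in RAS-dependent BJ fibroblasts engineered with TERT, LT and ST, with cytotoxicity read by fluorescence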
P388/ADR = test: cells; type: functional; details: Mus musculus
SN12K1 = test: cells; type: functional; details: Homo sapiens
P388 = test: cells; type: functional; details: Mus musculus
[29] = HeLa 2N DNA content increase, dose response, cell-based, IC50 (AID 1117349); type: functional
[30] = Concentration-dependent survival of SW480 colon cancer line, luminescence detection with CellTiter-Glo, half-maximal inhibitory concentration (AID 1117338); type: functional
[31] = RKO cell viability reduction, dose response, CellTiter-Glo luminescence (AID 1117322); type: functional
[32] = cytotoxicity toward HCT116 cells – cell-based, CellTiter-Glo luminescence, IC50, dose response (AID 1117332); type: functional; details: HCT-116
[33] = SNU-C1 cell viability reduction, dose response, CellTiter-Glo luminescence (AID 1117323); type: functional, cell-based
[34] = cytotoxicity toward Colo320 cells – cell-based, CellTiter-Glo luminescence, IC50, dose response (AID 1117334); type: functional; details: COLO 320
[35] = HeLa 4N DNA content increase, dose response, cell-based, IC50 (AID 1117351); type: functional
[36] = cytotoxicity toward HT-29 cells – cell-based, CellTiter-Glo luminescence, IC50, dose response (AID 1117330); type: functional
[37] = CellTiter-Glo luminescent dose response of DLD-1 viability loss (AID 1117352); type: functional
[38] = HCT116 cell viability decrease, GSK3B pretreatment – CellTiter-Glo, IC50, dose response (AID 1117339); type: functional; details: HCT-116

Cc1ccc(-c2cc3nc(C)cc(C)n3n2)cc1
IC50 [1]: > 67.5 µM (inactive)
EC50 [2]: > 67.5 µM (inactive)
EC50 [3]: > 67.5 µM (inactive)
EC50 (cells [4]): > 67.5 µM (inactive)

O=C1OC(c2ccc3ccccc3c2O)(c2ccc3ccccc3c2O)c2ccccc21
IC50 [5]: > 80 µM (inactive)
CC50 (Vero): > 40 µM (active)
IC50 (Genome polyprotein): 19 µM (active)
IC50 [6]: 7.05 µM (active)
IC50 [7]: 20.9 µM (active)
IC50 (Protein Tat): > 100 µM (active)
CC50 [8]: > 40 µM (active)

COc1cc2sc3cc(NCC[C@@H]4CCCN4C)ccc3c(=O)c2cc1OC
AC50 (HeLa): 191 µM (active)
AC50 [9]: 6.9 µM (active)
AC50 [10]: 17.6 µM (active)
IC50 [11]: 26.2 µM (inactive)
AC50 (cells [12]): 35.5 µM (active)
AC50 (cells [13]): 38 µM (active)

CCCCN(C)C(=O)c1ccc(Nc2nc(C(N)Cc3ccc(C(F)(F)F)cc3)cs2)nc1 (stereo unspecified)
IC50 [14]: > 96.6 µM (inactive)

C[C@@H](O)C#Cc1ccc2c(c1)O[C@@H](CN(C)Cc1ccc(-c3ccccc3)cc1)[C@@H](C)CN([C@@H](C)CO)S2(=O)=O
AC50 [15]: > 60 µM (inactive)
AC50 ([16]; A549): > 52 µM (inactive)
AC50 ([16]; a549): 49.4 µM (active)
AC50 [17]: 8.84 µM (active)

CN(C)CC[C@@H](c1ccc(Cl)cc1)c1ccccn1
IC50 [18]: 17.7 µM (inactive)

CS(=O)(=O)c1ccc(N2CCN(C(=O)c3ccc4c(c3)OCO4)CC2)cc1
AC50 [19]: 15.1 µM (active)

CCCc1ccc(S(=O)(=O)N2CCN(C(=O)/C=C/c3ccc(F)cc3)CC2)cc1
IC50 [20]: 0.0241 µM (active)

Sc1ncnc2nc[nH]c12 [MERCAPTOPURINE ANHYDROUS]
EC50 [21]: 13 µM (active)
EC50 (BJ [22]): > 150 µM (not active)
EC50 [23]: 11.6 µM (active)
EC50 (BJ [24]): 4.33 µM (inconclusive)
CC50 [25]: > 40 µM (active)
EC50 (BJ [26]): > 150 µM (not active)
EC50 [27]: 5.35 µM (active)
EC50 (BJ [28]): > 133 µM (inactive)
GI50 (P388/ADR): 19.5 µM (inactive)
GI50 (SN12K1): 1.29 µM (inactive)
GI50 (P388): 8.89 µM (inactive)
IC50 [29]: > 10 µM (inactive)
IC50 [30]: 1.04 µM (active)
IC50 [31]: 0.659 µM (active)
IC50 [32]: 0.259 µM (active)
IC50 [33]: > 20 µM (inactive)
IC50 [34]: 1.3 µM (active)
IC50 [35]: > 10 µM (inactive)
IC50 [36]: 0.635 µM (active)
IC50 [37]: 0.26 µM (active)
IC50 [38]: 1.42 µM (active)

Source: ChEMBL document CHEMBL1201862, “PubChem BioAssay data set” (2004)
